Data on twelve compounds can be found in patent US10399940B2, “Substituted pyrrolidines and methods of use” (AbbVie S.à.r.l., priority 2016, dated 2019).

Where two headings read alike, the source gives them in different places. A value given as a limit tells only on which side of the number the result lay.

The experiment has as its target T1, F508delCFTR (Homo sapiens, UniProt P13569, DEL508-508).
T1 construct: expressed in transfected cells; host or cells: CFBE41o- (human lung derived epithelial cell line), doxycycline-inducible expression
The experiment can be described thus: Cell Surface Expression-Horse Radish Peroxidase (CSE-HRP) assay. Type of experiment: cell-based. The settings on record: CFBE41o-F508delCFTR-HRP cells; for Maximum % activity (with co-corrector): with co-corrector (2 μM); for Maximum % activity (with co-corrector) / Maximum % activity (without co-corrector): normalized to on-plate positive control, highest concentration 20 μM. The procedure:
Cell Surface Expression-Horse Radish Peroxidase (CSE-HRP) Assay
A cellular assay for measuring the F508delCFTR cell surface expression after correction with test compounds either without or with a co-corrector (2 μM of 3-[(2R,4R)-4-({[1-(2,2-difluoro-1,3-benzodioxol-5-yl)cyclopropyl]carbonyl}amino)-7-methoxy-3,4-dihydro-2H-chromen-2-yl]benzoic acid), was developed in human lung derived epithelial cell line (CFBE41o-) (Veit G et al, (2012) Mol Biol Cell. 23(21): 4188-4202). The development was achieved by expressing the F508delCFTR mutation along with a horseradish peroxidase (HRP) in the fourth exofacial loop, and then measuring the HRP activity using luminescence readout from these cells, CFBE41o-F508delCFTR-HRP, that were incubated overnight with the test corrector compounds, either without or with the co-corrector. For this primary assay, the CFBE41o-F508delCFTR-HRP cells were plated in 384-well plates (Greiner Bio-one; Cat 781080) at 4,000 cells/well along with 0.5 μg/mL doxycycline to induce the F508delCFTR-HRP expression and further incubated at 37° C., 5% CO2 for 72 hours. The test compounds were then added either without or with a co-corrector at the required concentrations and further incubated for 18-24 hours at 33° C. The highest concentration tested was 20 μM with an 8-point concentration response curve using a 3-fold dilution in both the test compound without or with the co-corrector. Three replicate plates were run to determine one EC50. All plates contained negative controls (dimethyl sulfoxide, DMSO) and positive control (2 μM of 3-[(2R,4R)-4-({[1-(2,2-difluoro-1,3-benzodioxol-5-yl)cyclopropyl]carbonyl}amino)-7-methoxy-3,4-dihydro-2H-chromen-2-yl]benzoic acid) as well as on-plate concentration response of the positive control. Post incubation, the plates were washed 5× times with Dulbecco's phosphate buffered saline (DPBS), followed by the addition of the HRP substrate, luminol (50 μL), and measuring the HRP activity using luminescence readout on EnVision® Multilabel Plate Reader (Perkin Elmer; product number 2104-0010). The raw counts from the experiment were analyzed using Accelrys® Assay Explorer v3.3.
Z′ greater than 0.5 was used as passing quality control criteria for the plates.
The Z′ is defined as: 1−[3*SDPositive Control+3*SDNegative Control/Absolute(MeanPositive Control−MeanNegative Control)] wherein “SD” is standard deviation.
The % activity measured at each of the 8 test concentrations of the test compound added either without or with a co-corrector (2 μM of 3-[(2R,4R)-4-({[1-(2,2-difluoro-1,3-benzodioxol-5-yl)cyclopropyl]carbonyl}amino)-7-methoxy-3,4-dihydro-2H-chromen-2-yl]benzoic acid) was normalized to the on-plate positive control using the following formulae: % activity(Test compound without co-corrector)=[(test compound without co-corrector response−DMSO response)/(positive control response−DMSO response)]*100 % activity(Test compound with co-corrector)=[(test compound with co-corrector response−DMSO response)/(positive control response−DMSO response)]*100
The maximum % activity achieved for the test compound either without or with a co-corrector at any tested concentration is presented in Table 1 along with the respective EC50's calculated using the following general sigmoidal curve with variable Hill slope equation (described as Model 42 in the Accelrys® Assay Explorer v3.3 software): y=(a−d)/(1+(x/c)^b)+d
General sigmoidal curve with concentration, response, top, bottom, EC50 and Hill slope. This model describes a sigmoidal curve with an adjustable baseline, a. The equation can be used to fit curves where response is either increasing or decreasing with respect to the independent variable, “x”. • “x” is a concentration of drug under test. • “y” is the response. • “a” is the maximum response, and “d” is the minimum response • “c” is the inflection point (EC50) for the curve. That is, “y” is halfway between the lower and upper asymptotes when x=c. “b” is the slope-factor or Hill coefficient. […]

Setting [1] is: test compound without co-corrector, 18-24 hours at 33° C., read-out: EC50 (without co-corrector).
The mark [2] stands for this setting: with co-corrector (2 μM of 3-[(2R,4R)-4-({[1-(2,2-difluoro-1,3-benzodioxol-5-yl)cyclopropyl]carbonyl}amino)-7-methoxy-3,4-dihydro-2H-chromen-2-yl]benzoic acid), read-out: EC50 (with co-corrector).

T1 sequence (P13569 with tags, fused parts or gaps DEL508-508): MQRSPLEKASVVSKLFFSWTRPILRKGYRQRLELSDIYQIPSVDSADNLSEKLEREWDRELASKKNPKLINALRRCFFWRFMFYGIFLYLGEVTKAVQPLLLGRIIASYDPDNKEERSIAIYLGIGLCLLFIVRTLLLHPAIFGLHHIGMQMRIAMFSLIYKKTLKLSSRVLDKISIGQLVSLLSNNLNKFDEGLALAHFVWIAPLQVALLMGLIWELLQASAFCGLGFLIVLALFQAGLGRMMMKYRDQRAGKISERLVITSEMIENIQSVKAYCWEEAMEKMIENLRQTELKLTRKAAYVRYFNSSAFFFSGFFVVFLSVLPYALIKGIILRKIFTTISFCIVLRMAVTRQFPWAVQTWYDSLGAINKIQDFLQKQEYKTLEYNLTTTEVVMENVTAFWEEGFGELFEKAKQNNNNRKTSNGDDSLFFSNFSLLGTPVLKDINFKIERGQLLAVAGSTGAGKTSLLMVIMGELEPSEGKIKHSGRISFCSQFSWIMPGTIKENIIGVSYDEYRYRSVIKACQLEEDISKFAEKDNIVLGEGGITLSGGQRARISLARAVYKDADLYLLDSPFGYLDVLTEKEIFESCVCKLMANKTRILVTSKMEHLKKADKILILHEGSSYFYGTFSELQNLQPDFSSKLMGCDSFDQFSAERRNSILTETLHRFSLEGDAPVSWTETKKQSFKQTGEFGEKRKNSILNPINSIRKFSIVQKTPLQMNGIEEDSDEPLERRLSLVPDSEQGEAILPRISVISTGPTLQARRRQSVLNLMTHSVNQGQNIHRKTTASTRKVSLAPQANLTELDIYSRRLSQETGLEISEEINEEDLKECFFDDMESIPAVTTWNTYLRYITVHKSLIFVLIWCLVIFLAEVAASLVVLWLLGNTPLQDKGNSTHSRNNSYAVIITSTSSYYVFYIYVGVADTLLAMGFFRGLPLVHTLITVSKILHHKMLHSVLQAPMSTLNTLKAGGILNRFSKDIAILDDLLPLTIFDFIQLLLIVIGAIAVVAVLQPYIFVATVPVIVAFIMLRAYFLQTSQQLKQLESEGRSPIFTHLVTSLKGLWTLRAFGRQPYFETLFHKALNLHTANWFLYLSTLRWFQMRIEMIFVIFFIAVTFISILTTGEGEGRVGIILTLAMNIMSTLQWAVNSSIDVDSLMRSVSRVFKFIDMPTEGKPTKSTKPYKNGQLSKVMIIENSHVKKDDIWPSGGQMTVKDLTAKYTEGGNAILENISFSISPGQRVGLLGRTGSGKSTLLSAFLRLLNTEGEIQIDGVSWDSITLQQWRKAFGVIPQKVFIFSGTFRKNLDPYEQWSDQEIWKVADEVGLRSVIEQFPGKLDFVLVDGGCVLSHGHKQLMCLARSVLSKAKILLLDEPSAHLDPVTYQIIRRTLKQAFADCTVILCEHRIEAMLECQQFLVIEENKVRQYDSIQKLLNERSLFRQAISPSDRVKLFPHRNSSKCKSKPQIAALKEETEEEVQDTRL

As for `COc1ccc(C(F)(F)F)cc1CO[C@@H]1[C@@H](C(C)(C)C)[C@H](C(=O)O)N(C(=O)[C@@H]2CCC[C@@H](OC)C2)[C@@H]1c1ccccc1` (mixture of isomers) [Example 29, rac-(2R,3S,4R,5R)-3-(tert-butyl)-4-((2-methoxy-5-(trifluoromethyl)benzyl)oxy)-1-((1R,3R)-3-methoxycyclohexanecarbonyl)-5-phenylpyrrolidine-2-carboxylic acid], the “Maximum % activity (with co-corrector)” value is “+++ (≥350)” and the “Maximum % activity (without co-corrector)” value is “+++ (≥200)”. For the same compound, under setting [1], the EC50 lay in the range of 1 to 10 µM. For the same compound, the EC50 under setting [2] was in the range of 1 to 10 µM.

`CC(C)(C)[C@@H]1C(OCc2cc(Cl)ccc2Cl)[C@@H](c2ccccc2)N(C(=O)CC2CCCC2)[C@H]1C(=O)O` (mixture of isomers) [Example 1, rac-(2R,3S,5R)-3-tert-butyl-1-(cyclopentylacetyl)-4-[(2,5-dichlorophenyl)methoxy]-5-phenylpyrrolidine-2-carboxylic acid]: the “Maximum % activity (with co-corrector)” value is “+++ (≥350)” and the “Maximum % activity (without co-corrector)” value is “+ (<100)”. The EC50 under setting [1] is 1 to 10 µM. The EC50 under setting [2] was 1 to 10 µM.

In the case of `COc1ccc(C(F)(F)F)cc1COC1[C@@H](c2ccccc2)N(C(=O)C2CCCCC2)[C@@H](C(=O)O)[C@@H]1C(C)(C)C` (mixture of isomers) [Example 2, rac-(2R,3S,5R)-3-tert-butyl-1-(cyclohexanecarbonyl)-4-{[2-methoxy-5-(trifluoromethyl)phenyl]methoxy}-5-phenylpyrrolidine-2-carboxylic acid], the “Maximum % activity (with co-corrector)” value is recorded as “+++ (≥350)”; the “Maximum % activity (without co-corrector)” value is “++ (≥100 and <200)”. Also, the EC50 under setting [1] lay within 1 to 10 µM. The EC50 under setting [2] is 1 to 10 µM.

Turning to `COc1ccc(Cl)cc1COC1[C@@H](c2ccccc2)N(C(=O)C2CCCCC2)[C@@H](C(=O)O)[C@@H]1C(C)(C)C` (mixture of isomers) [Example 3, rac-(2R,3S,5R)-3-tert-butyl-4-[(5-chloro-2-methoxyphenyl)methoxy]-1-(cyclohexanecarbonyl)-5-phenylpyrrolidine-2-carboxylic acid], the “Maximum % activity (with co-corrector)” value is “+++ (≥350)”; the “Maximum % activity (without co-corrector)” value was “++ (≥100 and <200)”. Besides, the EC50 under setting [1] is 1 to 10 µM. In addition, under setting [2], the EC50 fell in the range of 1 to 10 µM.

With `CC(C)(C)[C@@H]1C(OCc2cc(Cl)ccc2Cl)[C@@H](c2ccccc2)N(C(=O)C2CCCCC2)[C@H]1C(=O)O` (mixture of isomers) [Example 4, rac-(2R,3S,5R)-3-tert-butyl-1-(cyclohexanecarbonyl)-4-[(2,5-dichlorophenyl)methoxy]-5-phenylpyrrolidine-2-carboxylic acid], the “Maximum % activity (with co-corrector)” value is given as “+++ (≥350)”; the “Maximum % activity (without co-corrector)” value was “++ (≥100 and <200)”. Also, under setting [1], the EC50 lay within 1 to 10 µM. Also, the EC50 under setting [2] lay in the range of 1 to 10 µM.

With `Cc1cc(C(F)(F)F)cc(OC2[C@@H](c3ccccc3)N(C(=O)C3CCCCC3)[C@@H](C(=O)O)[C@@H]2C(C)(C)C)n1` (mixture of isomers) [Example 5, rac-(2R,3S,5R)-3-tert-butyl-1-(cyclohexanecarbonyl)-4-{[6-methyl-4-(trifluoromethyl)pyridin-2-yl]oxy}-5-phenylpyrrolidine-2-carboxylic acid], the “Maximum % activity (with co-corrector)” value was “+++ (≥350)”; the “Maximum % activity (without co-corrector)” value is “++ (≥100 and <200)”. Under setting [1], the EC50 is 1 to 10 µM. In addition, the EC50 under setting [2] was 1 to 10 µM.

As to `COc1cc(OC)nc(OC2[C@@H](c3ccccc3)N(C(=O)N(C(C)C)C(C)C)[C@@H](C(=O)O)[C@@H]2C(C)(C)C)n1` (mixture of isomers) [Example 6, rac-(2R,3S,5R)-3-tert-butyl-4-[(4,6-dimethoxypyrimidin-2-yl)oxy]-1-[di(propan-2-yl)carbamoyl]-5-phenylpyrrolidine-2-carboxylic acid], the “Maximum % activity (with co-corrector)” value is recorded as “+++ (≥350)” and the “Maximum % activity (without co-corrector)” value is listed as “+ (<100)”. For the same compound, the EC50 under setting [1] is 1 to 10 µM. Moreover, the EC50 under setting [2] lay in the range of 1 to 10 µM.

In the case of `COc1ccc(C(F)(F)F)cc1COC1[C@@H](c2ccccc2)N(C(=O)N(C(C)C)C(C)C)[C@@H](C(=O)O)[C@@H]1C(C)(C)C` (mixture of isomers) [Example 7, rac-(2R,3S,5R)-3-tert-butyl-1-[di(propan-2-yl)carbamoyl]-4-{[2-methoxy-5-(trifluoromethyl)phenyl]methoxy}-5-phenylpyrrolidine-2-carboxylic acid], the “Maximum % activity (with co-corrector)” value is recorded as “+ (<150)” and the “Maximum % activity (without co-corrector)” value was “+ (<100)”. Under setting [1], the EC50 was greater than 10 µM. Moreover, the EC50 under setting [2] was greater than 10 µM.

As for `COc1ncnc(OC)c1CO[C@@H]1[C@@H](C(C)(C)C)[C@H](C(=O)O)N(C(=O)C2CCCCC2)[C@@H]1c1ccccc1` (racemic) [Example 10, rac-(2R,3S,4R,5R)-3-tert-butyl-1-(cyclohexanecarbonyl)-4-[(4,6-dimethoxypyrimidin-5-yl)methoxy]-5-phenylpyrrolidine-2-carboxylic acid], the “Maximum % activity (with co-corrector)” value is “+++ (≥350)” and the “Maximum % activity (without co-corrector)” value is reported as “+++ (≥200)”. Moreover, the EC50 under setting [1] lay in the range of 1 to 10 µM. Further, under setting [2], the EC50 was 1 to 10 µM.

For `COc1cc(OC)nc(CO[C@@H]2[C@@H](C(C)(C)C)[C@H](C(=O)O)N(C(=O)C3CCCCC3)[C@@H]2c2ccccc2)n1` (racemic) [Example 11, rac-(2R,3S,4R,5R)-3-tert-butyl-1-(cyclohexanecarbonyl)-4-[(4,6-dimethoxypyrimidin-2-yl)methoxy]-5-phenylpyrrolidine-2-carboxylic acid], the “Maximum % activity (with co-corrector)” value was “+++ (≥350)”; the “Maximum % activity (without co-corrector)” value was “++ (≥100 and <200)”. The EC50 under setting [1] was in the range of 1 to 10 µM. Besides, under setting [2], the EC50 is 1 to 10 µM.

Take `CN(C)c1ncc(C(F)(F)F)cc1CO[C@@H]1[C@@H](C(C)(C)C)[C@H](C(=O)O)N(C(=O)C2CCCCC2)[C@@H]1c1ccccc1` (racemic) [Example 12, rac-(2R,3S,4R,5R)-3-tert-butyl-1-(cyclohexanecarbonyl)-4-{[2-(dimethylamino)-5-(trifluoromethyl)pyridin-3-yl]methoxy}-5-phenylpyrrolidine-2-carboxylic acid]: the “Maximum % activity (with co-corrector)” value is recorded as “+++ (≥350)”; the “Maximum % activity (without co-corrector)” value was “++ (≥100 and <200)”. Besides, under setting [1], the EC50 was 1 to 10 µM. Also, under setting [2], the EC50 was 1 to 10 µM.

As to `COc1ccc(C(F)(F)F)cc1COC1[C@@H](c2ccccc2OC)N(C(=O)C2CCCCC2)[C@@H](C(=O)O)[C@@H]1C(C)(C)C` (mixture of isomers) [Example 13, rac-(2R,3S,5R)-3-tert-butyl-1-(cyclohexanecarbonyl)-5-(2-methoxyphenyl)-4-{[2-methoxy-5-(trifluoromethyl)phenyl]methoxy}pyrrolidine-2-carboxylic acid], the “Maximum % activity (with co-corrector)” value is on record as “+++ (≥350)” and the “Maximum % activity (without co-corrector)” value was “+ (<100)”. The EC50 under setting [1] was in the range of 1 to 10 µM. The EC50 under setting [2] lay within 1 to 10 µM.
